Marks after values point to notes of the source that are not given here.
Legend:
MDA-MB-231 cells = test: Cytotoxicity of RX-5902 after p68 knock-down with p68-siRNA; format: cell-based, human; details: IC50 concentration of RX-5902
[1] = system: human ovarian tumor xenografts (A-2780); test: Cisplatin-resistant ovarian cancer xenograft model; format: in vivo, mice; details: oral
Excerpt: (§1) The efficacy of RX-5902 in human cancer xenograft mouse models is examined. Female nude mice (nu/nu, Harlan or CRL: NU(NCr)-Foxn1^nu, Charles River), 9-10 weeks old, with a body weight (BW) range of 15-30 g on day 1 of the study, are fed ad libitum water (reverse osmosis, 1 ppm C1), and NIH 31 Modified and Irradiated Lab Diet® consisting of 18.0% crude protein, 5.0% crude fat, and 5.0% crude fiber. The mice are housed on irradiated Enrich-o'Cobs™ Laboratory Animal Bedding in static microisolators on a 12-hour light cycle at 20-22° C. (68-72° F.) and 40-60% humidity. The study complies with the recommendations of the Guide for, Care and Use of Laboratory Animals with respect to restraint, husbandry, surgical procedures, feed and fluid regulation, and veterinary care.
Various human tumor cell lines (e.g., HCT116, HT29, H460, H69, Caki-1, CaSki, MiaPaca2, BxPC3 and Colo 205 cells [ATCC, Manassas, Va., USA]) are cultured according to ATCC's instruction. […]
(§2) The cells are harvested during exponential growth and re-suspended with phosphate buffered saline. Each test animal receives a subcutaneous (s.c.) injection of 5×10^6 tumor cells into the right flank and tumor growth is monitored as the average tumor size approaches the target range of 80-300 mm^3. […] Tumors and body weights are measured regularly until the study is terminated.
(§3) Tumors are measured in two dimensions using calipers, and volume is calculated using the formula: […]
Treatment efficacy is determined using data from Day 15. The MTV (n), the median tumor volume for the number of animals, n, on Day 15, is determined for each group. Percent tumor growth inhibition (% TGI) is defined as the difference between the MTV of the designated control group (vehicle administration) and the MTV of the drug-treated group, expressed as a percentage of the MTV of the control group: % TGI=[1−(MTVdrug treated/MTVcontrol)]×100 The data set for TGI analysis includes all animals in a group, except those that die due to treatment-related (TR) or non-treatment-related (NTR) causes. […]
Animals are monitored individually for tumor growth until Day 71. […]

[2] = system: human pancreas tumor xenografts (MiaPaca-2); test: Pancreatic cancer xenograft model; format: in vivo, mice; details: oral, 5ON/2OFF
Excerpt: as §1, with “The study complies with the recommendations of the Guide for, Care and Use of Laboratory Animals with respect to restraint, husbandry, surgical procedures, feed and fluid regulation, and veterinary care.” left out
as §2, §3
Treatment efficacy is determined using data from Day 15. The MTV (n), the median tumor volume for the number of animals, n, on Day 15, is determined for each group. […]
Animals are monitored individually for tumor growth until Day 71. […] The time to endpoint (TTE) for each mouse is calculated with the following equation: […]

WI-38 cells = test: Western blot of cyclin D1, c-Myc and p-c-Jun; format: cell-based; details: even at 70 nM
Protocol: (§4) MDA-MB-231, SK-MEL-28, and WI-38 cells were obtained from ATCC (Manassas, Va., USA) and were cultured according to the vendor's instructions. Anti-p68 antibody and antiY593-p68 antibody were purchased from Cell Signaling (Danvers, Mass.) and Abcam (Cambridge, Mass.), respectively. Antibodies against β-actin, cyclin D1, p-c-Jun and c-Myc, were purchased from Santa Cruz (Dallas, Tex.). Anti-phospho-tyrosine antibody and HRP conjugated GAPDH antibody were obtained from Cell Signaling (Danvers, Mass.). Recombinant β-catenin and p68 protein were purchased from Creative Biomart (Shirley, N.Y.) and Origene (Rockville, Md.), respectively.
(§5) RX-5902 was dissolved in DMSO to prepare a stock solution of 2 mM. The stock solution was stored at −20° C. and diluted with medium to prepare working concentrations.
(§6) Protein mix or cell lysates were separated by SDS-PAGE and transferred to PVDF membrane. The membrane was blocked by blocking buffer (1×TBST containing 5% BSA) at room temperature for 1 hour. After a brief wash, the membrane was incubated with primary antibody in blocking buffer at 4° C. overnight. After incubation in primary antibody, the membrane was washed with 1×TBST three times and subsequently incubated with HRP conjugated secondary antibody in blocking buffer at room temperature for 1 hour. The membrane was again washed three times and visualized by ECL system (Thermo Scientific, Rockford, Ill.).
(§7) Since RX-5902 directly binds to Y593 phospho-p68, it was hypothesized that treatment of cells with RX-5902 would interfere with the phospho-p68/β-catenin interaction and consequently affect the expression of several growth associated genes, including p-c-Jun, c-Myc and cyclin D, which are regulated by phospho-p68/β-catenin interaction. Thus, cyclin D1 and c-Myc expression, as well as phosphorylation of c-Jun in cells treated with RX-5902, were analyzed. Cancer cell lines, SK-MEL-28 and MDA-MB-231, and normal fetal lung fibroblasts, WI-38, were used.

SK-MEL-28 cells = test: Western blot of cyclin D1, c-Myc and p-c-Jun; format: cell-based
Protocol: as §4, §5, §6, §7

COc1cc(OC)cc(N2CCN(C(=O)Nc3nc4cc(F)ccc4nc3OC)CC2)c1 [RX-5902, 4-(3,5-dimethoxyphenyl)-N-(7-fluoro-3-methoxyquinoxalin-2-yl)piperazine-1-carboxamide]
cytotoxic effect in p68-siRNA-transfected cells (MDA-MB-231 cells): protected MDA-MB-231 cells from the cytotoxic effects | TGI % ([1]; 160 mg/kg QWK): 43%* | TGI % ([1]; 320 mg/kg QWK): 43%* | TGI % ([1]; 600 mg/kg QWK): 75%* | TGD % ([2]; 50 mg/kg): 83%^ | TGD % ([2]; 70 mg/kg): 339%^ | cyclin D1, c-Myc expression and c-Jun phosphorylation (WI-38 cells): did not result in any significant change | cyclin D1, c-Myc and p-c-Jun protein levels (SK-MEL-28 cells; 20 nM): did not change protein levels | cyclin D1, c-Myc expression and c-Jun phosphorylation (SK-MEL-28 cells; 70 nM): decrease in expression of both cyclin D1 and c-Myc and a decrease in c-Jun phosphorylation
